Data taken from patent US20240245670A1, “DOSING REGIMEN AND PHARMACEUTICAL COMBINATION COMPRISING 3-(1-OXOISOINDOLIN-2-YL)PIPERIDINE-2,6-DIONE DERIVATIVES” (Novartis AG, priority 2018, published 2024).
Entries after “also recorded” stand apart in the source; their conditions may differ.

Key:
IKZF2 [1] = target: T1, IKZF2 (Homo sapiens, UniProt Q96SW2+Q9UKS7); test: Degradation of prolabel-tagged target proteins in HEK293T cells (FIG. 1); assay type: cell-based; design: prolabel; expressed in transfected cells; host or cells: HEK293T; details: HEK293T cells overexpressing prolabel-tagged target proteins; various concentrations
T1 sequence (Q9UKS7 whole entry): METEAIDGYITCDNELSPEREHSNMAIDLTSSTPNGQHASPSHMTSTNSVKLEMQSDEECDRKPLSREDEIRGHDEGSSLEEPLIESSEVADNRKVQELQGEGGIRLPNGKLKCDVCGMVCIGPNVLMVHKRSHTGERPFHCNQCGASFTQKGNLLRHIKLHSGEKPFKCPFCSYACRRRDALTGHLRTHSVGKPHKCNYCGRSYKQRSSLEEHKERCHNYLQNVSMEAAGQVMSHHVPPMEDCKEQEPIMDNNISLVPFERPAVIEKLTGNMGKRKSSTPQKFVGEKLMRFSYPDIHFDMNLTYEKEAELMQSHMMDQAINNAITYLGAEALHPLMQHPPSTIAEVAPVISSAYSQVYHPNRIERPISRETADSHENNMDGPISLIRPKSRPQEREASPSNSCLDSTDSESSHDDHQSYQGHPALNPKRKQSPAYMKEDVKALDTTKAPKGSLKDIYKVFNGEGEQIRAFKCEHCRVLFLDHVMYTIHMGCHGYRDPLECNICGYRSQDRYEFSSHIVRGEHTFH
T1 sequence (Q96SW2 whole entry): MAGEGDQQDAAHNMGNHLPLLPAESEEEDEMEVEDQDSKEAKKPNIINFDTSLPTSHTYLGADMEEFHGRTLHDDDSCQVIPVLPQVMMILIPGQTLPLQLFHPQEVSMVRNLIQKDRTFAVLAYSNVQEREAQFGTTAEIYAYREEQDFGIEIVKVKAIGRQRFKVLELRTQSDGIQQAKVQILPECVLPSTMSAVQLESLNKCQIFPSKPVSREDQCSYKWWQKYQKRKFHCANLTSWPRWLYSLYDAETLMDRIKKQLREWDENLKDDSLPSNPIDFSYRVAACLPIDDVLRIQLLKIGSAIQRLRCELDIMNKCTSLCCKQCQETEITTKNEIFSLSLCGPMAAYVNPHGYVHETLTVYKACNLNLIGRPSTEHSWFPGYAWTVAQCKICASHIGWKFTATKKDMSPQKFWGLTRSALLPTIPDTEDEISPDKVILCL
T1 sequence (Q16531 whole entry partner): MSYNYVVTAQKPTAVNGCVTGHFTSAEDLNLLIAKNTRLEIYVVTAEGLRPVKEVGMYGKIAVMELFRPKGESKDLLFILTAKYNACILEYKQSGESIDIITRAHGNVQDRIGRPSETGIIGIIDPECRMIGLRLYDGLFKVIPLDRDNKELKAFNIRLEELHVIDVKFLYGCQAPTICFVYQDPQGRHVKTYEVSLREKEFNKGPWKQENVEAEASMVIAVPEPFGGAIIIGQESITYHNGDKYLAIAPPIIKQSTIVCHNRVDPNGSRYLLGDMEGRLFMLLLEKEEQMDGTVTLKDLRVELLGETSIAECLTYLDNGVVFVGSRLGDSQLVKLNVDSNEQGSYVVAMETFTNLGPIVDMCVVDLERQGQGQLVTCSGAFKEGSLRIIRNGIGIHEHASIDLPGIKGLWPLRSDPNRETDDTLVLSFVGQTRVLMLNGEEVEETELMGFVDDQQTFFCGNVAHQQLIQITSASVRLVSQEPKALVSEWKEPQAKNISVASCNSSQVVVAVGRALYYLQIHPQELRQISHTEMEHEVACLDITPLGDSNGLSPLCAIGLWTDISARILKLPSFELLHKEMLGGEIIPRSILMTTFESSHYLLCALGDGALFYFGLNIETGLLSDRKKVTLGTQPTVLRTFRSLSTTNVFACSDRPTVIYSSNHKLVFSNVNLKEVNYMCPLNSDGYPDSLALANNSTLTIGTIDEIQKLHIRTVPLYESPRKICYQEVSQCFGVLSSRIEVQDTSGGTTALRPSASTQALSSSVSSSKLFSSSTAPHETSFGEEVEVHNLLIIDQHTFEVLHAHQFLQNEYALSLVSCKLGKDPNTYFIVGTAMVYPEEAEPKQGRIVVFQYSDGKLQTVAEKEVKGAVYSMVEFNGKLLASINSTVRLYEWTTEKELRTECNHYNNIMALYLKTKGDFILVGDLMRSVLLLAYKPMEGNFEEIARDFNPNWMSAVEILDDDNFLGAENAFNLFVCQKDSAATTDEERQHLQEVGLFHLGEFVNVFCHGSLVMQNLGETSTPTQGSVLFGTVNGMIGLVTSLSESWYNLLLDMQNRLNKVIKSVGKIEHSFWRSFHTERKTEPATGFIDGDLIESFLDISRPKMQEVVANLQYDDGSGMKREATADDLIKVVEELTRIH
From the text: FIG. 1. is a graph showing the selectivity of Compound I-57 for the degradation of IKZF2 over the other IKAROS family members, IKZF1, IKZF4, and GSPT1 at various concentrations in HEK293T cells overexpressing prolabel-tagged target proteins.
Although the specific transcriptional targets of IKZF2 remain to be defined, IKZF2 binds to and represses transcription from the IL-2 promoter region (Baine 2013). […] Finally, an in vitro assay recapitulating hallmarks of T cell dysfunction/exhaustion, by sequential TCR stimulation of isolated primary human T cells, was used to test the hypothesis that […] would rescue the exhausted phenotype and enhance Teff cell activity. […] In addition to IKZF1, other known cereblon substrates including translation termination factor G1 to S phase transition 1 (GSPT1) are not degraded by I-57 (FIG. 1).

IKZF2 [2] = target: T1, IKZF2; test: IKZF2 protein in total tumor-infiltrating lymphocytes by immunohistochemistry, hPBMC AdT model (FIG. 8); assay type: in vivo; design: endogenous in cells; host or cells: primary human PBMCs / primary Treg cells; details: 24 h post the 14th daily dose
Procedure: FIG. 8A is a bar graph showing the change in the IKZF2 protein levels in total tumor-infiltrating lymphocytes by immunohistochemistry (IHC) at 24 h post the 14th daily dose of 1, 3 or 30 mg/kg Compound I-57.
IKZF2 protein levels in total tumor-infiltrating lymphocytes were also assessed by immunohistochemistry (IHC) at 24 h post the 14th dose of 1, 3 or 30 mg/kg I-57. […] Overall, IKZF2 degradation assessed by IHC was generally consistent with our findings in Tregs by flow cytometry, though dose dependency was less apparent. Together, the data support the finding of profound I-57-mediated IKZF2 degradation in tumor-infiltrating lymphocytes (FIG. 8A and FIG. 8B).

[3] = tested on: IKZF2 expression in FOXP3+ T cells from PBMCs; test: PD after single oral dose in cynomolgus monkey: IKZF2 expression by flow cytometry; assay type: in vivo
Procedure: FIG. 4 is a graph showing the PK/PD relationship in the cynomolgus monkey after a single oral of 0.01, 0.1 or 1 mg/kg of Compound I-57.
FIG. 5. is a graph showing plasma concentration in the cynomolgus monkey of Compound I-57 and IKZF2 expression (as determined by flow cytometry) in FOXP3+ T cells from PBMCs after a single oral of 0.01, 0.1 or 1 mg/kg of Compound I-57.
The PK/PD relationship of I-57 was examined in cynomolgus monkeys after a single oral dose of 0.01, 0.1 or 1 mg/kg. I-57 plasma concentration and IKZF2 expression (as determined by flow cytometry) in FOXP3+ T cells from PBMCs were determined (FIG. 4 and FIG. 5).
Decreased (percentage change) IKZF2 positive FOXP3-cells, as determined by flow cytometry, were detectable at 4h post dose in the 1 mg/kg and 0.1 mg/kg groups, reaching maximum at 12-24 hrs post-dose and maintaining this maximum for 12-24 hrs.

[4] = Toxicology in rats (5-day and 4-week GLP studies); assay type: in vivo
From the text: The non-clinical safety profile of I-57 was established in vitro, and in vivo in rats and cynomolgus monkeys in studies up to 4-weeks duration. Based on the outcome of these studies, QTc interval prolongation was identified as the principal safety signal for I-57. There were other toxicities such as diarrhea and vomiting in monkeys, and mortality, clinical signs and target organ toxicities in rats; however, these occurred at exposures far above those expected to result in clinical activity.
Clinical signs, decreases in body weight and food consumption, and clinical pathology changes reflecting inflammation, renal and liver injury, and stress were generally evident in the pre-terminal animals. Kidney toxicity was evident in rats at doses >100 mg/kg/day and was characterized by increased weight, hematuria, proteinuria, with or without increased blood urea and creatinine, degeneration, regeneration and inflammation at 300 mg/kg/day.
Similar exposure in the clinic would require doses in human of approximately 2,000 and 5,000 mg QD based on the human PK model. Activity is anticipated well below this dose level.

rat IKZF2 = target: T2, rat IKZF2 (Rattus norvegicus, UniProt A0A0G2JVA9); test: IKZF2 degradation, species relevance (rat)
T2 construct: assessed in primary PBMCs obtained from rabbit, dog, pig, cynomolgus monkey, and human, and in primary splenocytes of mouse and rat; endogenous in cells; host or cells: primary rat splenocytes
T2 sequence (A0A0G2JVA9 1-467): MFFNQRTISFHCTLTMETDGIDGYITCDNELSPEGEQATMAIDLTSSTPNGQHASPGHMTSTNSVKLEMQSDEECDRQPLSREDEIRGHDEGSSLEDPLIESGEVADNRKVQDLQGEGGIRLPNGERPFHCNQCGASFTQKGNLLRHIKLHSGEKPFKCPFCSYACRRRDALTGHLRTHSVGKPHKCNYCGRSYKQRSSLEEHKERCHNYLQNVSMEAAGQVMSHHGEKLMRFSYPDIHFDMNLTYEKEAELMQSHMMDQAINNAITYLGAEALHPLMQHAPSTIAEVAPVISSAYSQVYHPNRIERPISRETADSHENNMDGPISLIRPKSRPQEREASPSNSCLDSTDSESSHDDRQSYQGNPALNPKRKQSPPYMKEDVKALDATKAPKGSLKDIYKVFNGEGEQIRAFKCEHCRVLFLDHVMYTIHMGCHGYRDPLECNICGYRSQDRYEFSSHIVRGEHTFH
T2 sequence (Q56AP7 whole entry partner): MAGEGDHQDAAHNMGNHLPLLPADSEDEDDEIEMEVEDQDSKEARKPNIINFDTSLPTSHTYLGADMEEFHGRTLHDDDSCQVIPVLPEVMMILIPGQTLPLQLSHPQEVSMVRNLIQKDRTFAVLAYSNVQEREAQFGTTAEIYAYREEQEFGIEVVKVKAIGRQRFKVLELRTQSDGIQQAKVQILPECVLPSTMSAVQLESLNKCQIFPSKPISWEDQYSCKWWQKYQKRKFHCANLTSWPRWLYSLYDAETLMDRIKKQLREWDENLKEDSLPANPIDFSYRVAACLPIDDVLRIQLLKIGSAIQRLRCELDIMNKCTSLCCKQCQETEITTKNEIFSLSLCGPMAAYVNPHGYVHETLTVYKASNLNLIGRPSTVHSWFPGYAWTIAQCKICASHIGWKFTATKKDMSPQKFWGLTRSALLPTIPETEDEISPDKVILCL
Procedure: The starting dose of I-57 selected for this study is supported by 4-week GLP toxicology studies performed in cynomolgus monkeys. […] GLP toxicity studies identified 30 mg/kg as the HNSTD in monkey and supported a starting dose up to 100 mg QD in human (BSA scaled HED and using a safety factor of 6). The selected dose of 20 mg is anticipated to result in a significant but sub-maximal IKZF2 degradation in human PBMCs and TILs (50-90%), based on PK/PD modeling of I-57 exposure and IKZF2 degradation in cynomolgus PBMCs. More IKZF2 degradation may be required to change downstream biology. Therefore, 20 mg is considered safe. Escalation from this starting dose will facilitate the determination of the minimal required dose which provides optimal IKZF2 degradation to impact downstream biological activity.

SMILES: O=C1CCC(N2Cc3cc(C4CCN(Cc5ccccc5)CC4)ccc3C2=O)C(=O)N1 (centres unmarked) [Compound I-57, 3-(5-(1-benzylpiperidin-4-yl)-1-oxoisoindolin-2-yl)piperidine-2,6-dione]
- degradation of IKZF2 (IKZF2 [1]): potent and specific degrader; also recorded: potent and specific degradation
- IKZF2 degradation in total tumor-infiltrating lymphocytes (IHC) (IKZF2 [2]; 30 mg/kg): approximately 85%
- IKZF2 levels in total tumor-infiltrating lymphocytes (IHC) (IKZF2 [2]; 1, 3 and 30 mg/kg): Robust reduction in IKZF2 levels
- time at which decreased IKZF2 positive FOXP3 cells were detectable ([3]; post dose, 1 mg/kg and 0.1 mg/kg groups): 4 h
- duration for which maximum decrease was maintained ([3]; single oral dose): 12 to 24 h
- dose dependence of decrease in IKZF2 positive cells ([3]; single oral dose of 0.01, 0.1 or 1 mg/kg): dose dependent
- human dose required for similar exposure (AUC) ([4]; exposure associated with mortality and toxicity in rats at 300 mg/kg, human PK model): ~5,000 mg QD
- urinary bladder findings ([4]; rat, in vivo, 300 mg/kg/day): Degenerative changes
- doses at which kidney toxicity was evident ([4]; rats): > 100 mg/kg/day
- doses at which mortality occurred ([4]; rats, females): > 300 mg/kg/day
- degradation of rat IKZF2 (rat IKZF2): not rat
